# Experimental data as given in ChEMBL document CHEMBL1121841, “Toxicity quantitative structure--activity relationships of colchicines” (J Med Chem, 1981).
# Assays:
# [1] = Compound was tested for toxicity in P388 tumored mice; type: organism-based; conditions: mouse, in vivo
# [2] = Compound was tested for toxicity in non tumored mice; type: organism-based; conditions: mouse, in vivo
# Mus musculus [3] = species: Mus musculus; conditions: in vivo
# Description: Logarithm of toxic activity (1/lethal dose) in mice bearing P388 leukemia on chronic regimen (Q 1-9)
# physchem = conditions: octanol/water
# Description: Partition coefficient (logP)
# Mus musculus [4] = test: Percent increase in life-span against in vivo P388 murine leukemia at a dose 0.78 mg/kg in trail 2; type: functional
# Mus musculus [5] = test: Percent increase in life-span against in vivo P388 murine leukemia at a dose 1.56 mg/kg in trail 1; type: functional
# Mus musculus [6] = test: Percent increase in life-span against in vivo P388 murine leukemia at a dose 1.56 mg/kg in trail 2; type: functional
# Mus musculus [7] = test: Percent increase in life-span against in vivo P388 murine leukemia at a dose 12.5 mg/kg in trail 2; type: functional
# Mus musculus [8] = test: Percent increase in life-span against in vivo P388 murine leukemia at a dose 3.12 mg/kg in trail 1; type: functional
# Mus musculus [9] = test: Percent increase in life-span against in vivo P388 murine leukemia at a dose 3.12 mg/kg in trail 2; type: functional
# Mus musculus [10] = test: Percent increase in life-span against in vivo P388 murine leukemia at a dose 6.25 mg/kg in trail 1; type: functional
# Mus musculus [11] = test: Percent increase in life-span against in vivo P388 murine leukemia at a dose 6.25 mg/kg in trail 2; type: functional
# Mus musculus [12] = test: Percent increase in life-span against in vivo P388 murine leukemia at a dose 0.78 mg/kg in trail 1; type: functional
# Mus musculus [13] = test: Percent increase in life-span against in vivo P388 murine leukemia at a dose 0.39 mg/kg in trail 2; type: functional
# Mus musculus [14] = test: Percent increase in life-span against in vivo P388 murine leukemia at a dose 0.39 mg/kg) in trail 1; type: functional
# Mus musculus [15] = test: Percent increase in life-span against in vivo P388 murine leukemia at a dose 0.06 mg/kg in trail 1; type: functional
# Mus musculus [16] = test: Percent increase in life-span against in vivo P388 murine leukemia at a dose 0.06 mg/kg in trail 2; type: functional
# Mus musculus [17] = test: Percent increase in life-span against in vivo P388 murine leukemia at a dose 0.12 mg/kg in trail 1; type: functional
# Mus musculus [18] = test: Percent increase in life-span against in vivo P388 murine leukemia at a dose 0.12 mg/kg in trail 2; type: functional
# Mus musculus [19] = test: Percent increase in life-span against in vivo P388 murine leukemia at a dose 0.25 mg/kg in trail 1; type: functional
# Mus musculus [20] = test: Percent increase in life-span against in vivo P388 murine leukemia at a dose 0.25 mg/kg in trail 2; type: functional
# Mus musculus [21] = test: Percent increase in life-span against in vivo P388 murine leukemia at a dose 0.5 mg/kg in trail 1; type: functional
# Mus musculus [22] = test: Percent increase in life-span against in vivo P388 murine leukemia at a dose 0.5 mg/kg in trail 2; type: functional
SMILES,LD50 [1] [mg/kg],LD50 [2] [mg/kg],Log 1/LD50 (Mus musculus [3]),further results
COc1cc2c(c(OC)c1OC)-c1ccc(SC)c(=O)cc1[C@@H](NC(C)=O)CC2 [THIOCOLCHICINE],1,1,5.62,–
CNc1ccc2c(cc1=O)[C@@H](NC(C)=O)CCc1cc(OC)c(OC)c(OC)c1-2,0.8,1.4,5.72,–
COc1cc2c(c(OC)c1OC)-c1ccc(OC)c(=O)cc1[C@@H](NC(=O)CCl)CC2,–,–,5.54,–
COc1cc2c(c(OC)c1OC)-c1ccc(SC)c(=O)cc1[C@@H](NO[C@H]1O[C@@H](CO)[C@H](O)[C@@H](O)[C@@H]1O)CC2,–,–,3.71,logP (physchem): 1.25
COC(=O)C(N)CCCC/N=c1\ccc2c(cc1O)[C@@H](NC(C)=O)CCc1cc(OC)c(OC)c(OC)c1-2 (some centres undefined),–,–,3,–
COc1cc2c(c(OC)c1OC)-c1ccc(OC)c(=O)cc1[C@@H](N)CC2 [DEACETYLCOLCHICINE],–,–,3.71,–
COc1cc2c(c(OC)c1OC)-c1ccc(SCc3ccccc3)c(=O)cc1[C@@H](NC(C)=O)CC2,–,–,4.22,–
COc1cc2c(c(OC)c1OC)-c1ccc(OC)c(=O)cc1[C@@H](N(C)C)CC2,–,–,4.21,–
COc1cc2c(c(OC)c1OC)-c1ccc(OC)c(=O)cc1[C@@H](NC(=O)C(F)(F)F)CC2,0.8,1.9,5.73,–
COc1cc2c(c(OC)c1OC)-c1ccc(SC)c(=O)cc1[C@@H](NC(=O)CO)CC2,–,–,5.66,–
COc1cc2c(c(OC)c1OC)-c1ccc(OC)c(=O)cc1[C@@H](NC(=O)CF)CC2,–,–,5.69,–
CN[C@H]1CCc2cc(OC)c(OC)c(OC)c2-c2ccc(OC)c(=O)cc21 [DEMECOLCINE],–,–,3.63,–
COc1cc2c(c(OC)c1OC)-c1ccc(OC)c(=O)cc1[C@@H](NC=O)CC2,2.7,5,5.16,–
COc1cc2c(c(OC)c1OC)-c1ccc(OC)c(=O)cc1[C@@H](NC(=O)c1ccc([N+](=O)[O-])cc1)CC2,20,25,4.41,–
COc1cc2c(c(OC)c1OC)-c1ccc(SC)c(=O)cc1[C@@H](NO[C@H]1O[C@@H](COC(C)=O)[C@H](OC(C)=O)[C@@H](OC(C)=O)[C@@H]1OC(C)=O)CC2,–,–,3.81,logP (physchem): 4.61
COc1c(C=O)c2c(c(OC)c1OC)-c1ccc(OC)c(=O)cc1[C@@H](NC(C)=O)CC2,–,–,4.14,ILS at 0.78 mg/kg (Mus musculus [4]): 49%; ILS at 1.56 mg/kg (Mus musculus [5]): 60%; ILS at 1.56 mg/kg (Mus musculus [6]): 75%; ILS at 12.5 mg/kg (Mus musculus [7]): 2%; ILS at 3.12 mg/kg (Mus musculus [8]): 94%; ILS at 3.12 mg/kg (Mus musculus [9]): 80%; ILS at 6.25 mg/kg (Mus musculus [10]): 105%; ILS at 6.25 mg/kg (Mus musculus [11]): 105%; ILS at 0.78 mg/kg (Mus musculus [12]): 54%; ILS at 0.39 mg/kg (Mus musculus [13]): 49%; ILS at 0.39 mg/kg (Mus musculus [14]): 51%; logP (physchem): 5.92
COc1cc2c(c(OC)c1OC)-c1ccc(SC)c(=O)cc1[C@@H](NC(=O)C(F)(F)F)CC2,1.4,3.5,5.51,–
COc1cc2c(c(OC)c1OC)-c1ccc(OC)c(=O)cc1[C@@H](NC(=O)c1ccccc1)CC2,–,–,4.24,–
COC1=C2C(=CC(=O)C1OC)CC[C@H](NC(C)=O)c1cc(=O)c(OC)ccc12 (some centres undefined),–,–,5.82,logP (physchem): 0.93
COc1cc2c(c(OC)c1OC)-c1ccc(OC)c(=O)cc1[C@@H](NC(C)=O)CC2 [COLCHICINE],1.4,1.6,5.46,ILS at 0.06 mg/kg (Mus musculus [15]): 27%; ILS at 0.06 mg/kg (Mus musculus [16]): 24%; ILS at 0.12 mg/kg (Mus musculus [17]): 33%; ILS at 0.12 mg/kg (Mus musculus [18]): 40%; ILS at 0.25 mg/kg (Mus musculus [19]): 46%; ILS at 0.25 mg/kg (Mus musculus [20]): 58%; ILS at 0.5 mg/kg (Mus musculus [21]): 78%; ILS at 0.5 mg/kg (Mus musculus [22]): 89%
COc1cc2c(c(OC)c1OC)-c1ccc(SC)c(=O)cc1[C@@H](NC(=O)NCCCl)CC2,–,–,4.93,–
COc1cc2c(c(OC)c1OC)-c1ccc(SC)c(=O)cc1[C@@H](N)CC2,69,177,3.75,–
COc1cc2c(c(OC)c1OC)-c1cc/c(=N\Cc3ccccc3)c(O)cc1[C@@H](NC(C)=O)CC2,25.1,41,4.28,–
CCOC(=O)N[C@H]1CCc2cc(OC)c(OC)c(OC)c2-c2ccc(SC)c(=O)cc21,–,–,4.19,–
COc1cc2c(c(OC)c1OC)-c1ccc(SC)c(=O)cc1[C@@H](NO[C@H]1OC[C@@H](O)[C@@H](O)[C@@H]1O)CC2,102,251,3.98,logP (physchem): 1.4
COc1c(C#N)c2c(c(OC)c1OC)-c1ccc(OC)c(=O)cc1[C@@H](NC(C)=O)CC2,–,–,3.8,logP (physchem): 4.46
COc1c(CO)c2c(c(OC)c1OC)-c1ccc(OC)c(=O)cc1[C@@H](NC(C)=O)CC2,–,–,3.4,logP (physchem): 4.58
COc1cc2c(c(OC)c1OC)-c1ccc(SC)c(=O)cc1[C@@H](NC(=O)CCl)CC2,–,–,5.65,–
